Patent publication US10993985B2, “Methods of treating acute myeloid leukemia” (BioLineRx Ltd., priority 2016, dated 2021)
Positions of bridges follow the written chain, without caps; N, C: chain ends. Non-standard residues stand in square brackets, D forms with d. 2Nal = N[C@@H](Cc1ccc2ccccc2c1)C(=O)O; Cit = NC(=O)NCCC[C@H](N)C(=O)O

Key:
[1] = system: malignant cells of hematopoietic origin including AML; conditions: cited from earlier work
[2] = system: blast cells in peripheral blood (PB) of AML patients; experiment: Phase 1/2 study: mobilization of blast cells to peripheral blood after BL-8040 in relapsed or refractory AML patients; type: in vivo, human
Method: In an open-label, single arm, phase 1/2 study, patients diagnosed with AML with relapsed or refractory disease received a once daily subcutaneous (SC) dose of BL-8040 as monotherapy on days 1-2 followed by the same dose of BL-8040 plus Ara-C (1.5 g/m2 for patients ≥60; 3 g/m2 for patients <60) on days 3-7. Six dose levels of BL-8040 (0.5-2.0 mg/kg) were tested in the dose escalation phase with 1.5 mg/kg selected for the expansion phase. Extensive pharmacodynamics (PD) parameters such as the extent of mobilization were assessed during the study. Clinical response to treatment was determined by BM biopsy on day 30.
Measuring Blast-Cell Density in Peripheral Blood (PB) and Bone Marrow (BM)
Bone marrow blast-cell counts were performed using procedures essentially as described by Lee et al. (Int. Jnl. Lab. Hem. 30: 349-364, 2008).
Peripheral blast-cell counts were performed using procedures essentially as described by O'Connor, B. H., A Color Atlas and Instructions Manual of Peripheral Cell Morphology, Lippincot Williams, 1984.
Clinical responses to […] treatment were determined according to the standards of the international working group for AML (Cheson et al., J. Clin. Oncol. 21: 4642-4649, 2003; Döhner et al., Blood 115: 453-474, 2010; and de Greef et al., British Journal of Hematology 128: 184-91, 2005), which are summarized in Table 1 below.

human AML xenografts = conditions: subcutaneous injections; cited from earlier work
HIV-1 (X4-HIV-1) = conditions: through specific binding to CXCR4; cited from earlier work

| Substance | cytotoxicity toward malignant cells of hematopoietic origin including AML [1] | ratio of PB blast cell density after treatment to initial density prior to treatment ([2]; day 2 following treatment with BL-8040, non-responsive patients (SD and PD)) | ratio of PB blast cell density after treatment to initial density prior to treatment ([2]; day 2 following treatment with BL-8040, responsive patients, CR, prior to cytarabine) [fold] | ratio of PB blast cell density after treatment to initial density prior to treatment ([2]; day 2 following treatment with BL-8040, responsive patients, CRi, prior to cytarabine) [fold] | ratio of PB blast cell density after treatment to initial density prior to treatment ([2]; day 3, 8 hr following day 3 injection (after initiation of cytarabine), non-responsive patients (SD and PD)) | ratio of PB blast cell density after treatment to initial density prior to treatment ([2]; day 3, 8 hr following day 3 injection (after initiation of cytarabine), responsive patients, CR) [fold] | ratio of PB blast cell density after treatment to initial density prior to treatment ([2]; day 3, 8 hr following day 3 injection (after initiation of cytarabine), responsive patients, CRi) [fold] | ratio of PB blast cell density after treatment to initial density prior to treatment ([2]; day 3 following initial treatment with BL-8040, non-responsive patients (SD and PD)) | ratio of PB blast cell density after treatment to initial density prior to treatment ([2]; day 3 following initial treatment with BL-8040, responsive patients, CR, prior to cytarabine) [fold] | ratio of PB blast cell density after treatment to initial density prior to treatment ([2]; day 3 following initial treatment with BL-8040, responsive patients, CRi, prior to cytarabine) [fold] | increase of PB blast-cell density versus baseline ([2]; non-responsive patients, after 2 or 3 days following first administration of BL-8040) | increase of PB blast-cell density versus baseline ([2]; responsive patients (CR, CRi or CRp), after 2 days following first administration of BL-8040) [fold] | increase of PB blast-cell density versus baseline ([2]; responsive patients (CR, CRi or CRp), after 3 days following first administration of BL-8040) [fold] | growth of human AML xenografts (human AML xenografts) | HIV-1 (X4-HIV-1) entry to T cells (HIV-1 (X4-HIV-1)) |
| --- | --- | --- | --- | --- | --- | --- | --- | --- | --- | --- | --- | --- | --- | --- | --- |
| 4F-benzoyl-Arg-Arg-Nal-Cys-Tyr-Cit-Lys-DLys-Pro-Tyr-Arg-Cit-Cys-Arg-NH2 [BL-8040] | CXCR4-dependent preferential cytotoxicity | no increase was observed | 2.1 | 4.0 | no significant increase was observed | 7.0 | 4.2 | no significant increase was observed | 2.1 | 2.9 | did not increase | 3.7 | 3.8 | significantly reduced |  |
| H-Arg-Arg-Nal-Cys-Tyr-Arg-Lys-DLys-Pro-Tyr-Arg-Cit-Cys-Arg-OH (H-RR[2Nal]CYRK[dK]PYR[Cit]CR-OH; disulfide 4-13) [Analog T-140] |  |  |  |  |  |  |  |  |  |  |  |  |  |  | suppress |
